Common to all, as to format: in vivo
The test system of one assay is CHEAL. Kind of assay: Post-emergence biological efficacy. The note with it: Chenopodium album, 312 h, evaluated after 13 days, read-out: damage to plant (100=total damage to plant; 0=no damage to plant). The method, then:
(§1) Seeds of weeds and/or crops were sown in standard soil in pots. After cultivation for 14 days under controlled conditions in a glasshouse (at 24/19° C., day/night; 16 hours light), the plants were sprayed with an aqueous spray solution derived from the formulation of the technical active ingredient in a small amount of acetone and a special solvent and emulsifier mixture referred to as IF50 (11.12% Emulsogen EL360 TM+44.44% N-methylpyrrolidone+44.44% Dowanol DPM glycol ether), to create a 50g/l solution which was then diluted using 0.2% Genapol XO80 as diluent to give the desired final dose of test compound.
(§2) The test plants were then grown under controlled conditions in the glasshouse (at 24/18° C., day/night; 15 hours light; 50% humidity)and watered twice daily. After 13 days the test was evaluated (100=total damage to plant; 0=no damage to plant).

In assay [1] the test system is LOLPE. Kind of assay: Post-emergence biological efficacy. Particulars: Lolium perenne, 312 h, evaluated after 13 days, read-out: damage to plant (100=total damage to plant; 0=no damage to plant). The method, then: as §1, §2
In assay [2] the test system is SETFA. As to the kind of experiment: Post-emergence biological efficacy. Particulars: Setaria faberi, 312 h, evaluated after 13 days, read-out: damage to plant (100=total damage to plant; 0=no damage to plant). The procedure: as §1, §2
The subject of assay [3] is AMAPA. As to the kind of experiment: Post-emergence biological efficacy. Particulars: Amaranthus palmeri, 312 h, evaluated after 13 days, read-out: damage to plant (100=total damage to plant; 0=no damage to plant). The method, then:
as §1, §2

The test system of assay [4] is ECHCG. As to the kind of experiment: Post-emergence biological efficacy. Particulars: Echinochloa crus-galli, 312 h, evaluated after 13 days, read-out: damage to plant (100=total damage to plant; 0=no damage to plant). The method, then: as §1, §2
In the next assay the test system is ELEIN. As to the kind of experiment: Post-emergence biological efficacy. Particulars: 312 h, evaluated after 13 days, read-out: damage to plant (100=total damage to plant; 0=no damage to plant). The procedure: as §1, §2
For assay [5], the system named is IPOHE. As to the kind of experiment: Post-emergence biological efficacy. Particulars: Ipomoea hederacea, 312 h, evaluated after 13 days, read-out: damage to plant (100=total damage to plant; 0=no damage to plant). The method, then:
as §1, §2

Assay [6] concerns EPHHL. Kind of assay: Post-emergence biological efficacy. Particulars: Euphorbia heterophylla, 312 h, evaluated after 13 days, read-out: damage to plant (100=total damage to plant; 0=no damage to plant). The procedure:
as §1, §2

For the next assay, the system named is DIGSA. Kind of assay: Post-emergence biological efficacy. The note with it: Digitaria sanguinalis, 312 h, evaluated after 13 days, read-out: damage to plant (100=total damage to plant; 0=no damage to plant). The method, then:
as §1, §2

Assay [7] deals with LOLPE. Kind of assay: Pre-emergence biological efficacy. The note with it: Lolium perenne, 312 h, evaluated after 13 days, read-out: damage to plant (100=total damage to plant; 0=no damage to plant). The procedure: as §1, with “one day” for “14 days”
(§3) The test plants were then grown under controlled conditions in the glasshouse (at 24/18° C., day/night; 15 hours light; 50% humidity) and watered twice daily. After 13 days the test was evaluated (100=total damage to plant; 0=no damage to plant).

Assay [8] concerns SETFA. Kind of assay: Pre-emergence biological efficacy. The note with it: Setaria faberi, 312 h, evaluated after 13 days, read-out: damage to plant (100=total damage to plant; 0=no damage to plant). The procedure: as §1, with “one day” for “14 days”
as §3

In assay [9] the test system is AMAPA. Kind of assay: Pre-emergence biological efficacy. The note with it: Amaranthus palmeri, 312 h, evaluated after 13 days, read-out: damage to plant (100=total damage to plant; 0=no damage to plant). The procedure:
as §1, with “one day” for “14 days”
as §3

The subject of assay [10] is ECHCG. As to the kind of experiment: Pre-emergence biological efficacy. The note with it: Echinochloa crus-galli, 312 h, evaluated after 13 days, read-out: damage to plant (100=total damage to plant; 0=no damage to plant). The method, then: as §1, with “one day” for “14 days”
as §3

The subject of assay [11] is IPOHE. Kind of assay: Pre-emergence biological efficacy. The note with it: Ipomoea hederacea, 312 h, evaluated after 13 days, read-out: damage to plant (100=total damage to plant; 0=no damage to plant). The method, then:
as §1, with “one day” for “14 days”
as §3

Assay [12] deals with EPHHL. As to the kind of experiment: Pre-emergence biological efficacy. The note with it: Euphorbia heterophylla, 312 h, evaluated after 13 days, read-out: damage to plant (100=total damage to plant; 0=no damage to plant). The procedure: as §1, with “one day” for “14 days”
as §3

The structures appear in SMILES notation.

For the compound `CCOC(=O)C1(C)CC(c2cc(-c3cncc(C(F)(F)F)n3)c(F)cc2Cl)=NO1` (stereo not drawn) [Compound 1-727, Ethyl 3-[2-chloro-4-fluoro-5-[6-(trifluoromethyl)pyrazin-2-yl]phenyl]-5-methyl-4H-isoxazole-5-carboxylate], the pest or weed control at 250 g/ha came out at 70% in the assay on CHEAL; 20% in the assay on LOLPE [1]; 90% with SETFA [2]; 70% with AMAPA [3]; 90% in the assay with ECHCG [4]; 80% with ELEIN. Moreover, the pest or weed control at 250 g/ha was 100% in the assay with IPOHE [5]; 70% with EPHHL [6]; 70% with DIGSA; 0% in the assay with LOLPE [7]; 10% in the assay with SETFA [8]; 0% with AMAPA [9]. The pest or weed control at 250 g/ha came out at 30% in the assay with ECHCG [10], 20% in the assay on IPOHE [11] and 10% in the assay with EPHHL [12].

With `CCOC(=O)C1(C)CC(c2cc(-c3ccc(C)nc3F)c(F)cc2Cl)=NO1` (stereo not drawn) [Compound 1-463, Ethyl 3-[2-chloro-4-fluoro-5-(2-fluoro-6-methyl-3-pyridyl)-phenyl]-5-methyl-4H-isoxazole-5-carboxylate], the pest or weed control at 250 g/ha was found to be 70% in the assay with CHEAL; 0% in the assay on LOLPE [1]; 90% with SETFA [2]; 70% in the assay with AMAPA [3]; 90% in the assay with ECHCG [4]; 60% in the assay with ELEIN. In addition, the pest or weed control at 250 g/ha was found to be 100% in the assay on IPOHE [5]; 70% in the assay with EPHHL [6]; 70% with DIGSA; 10% with LOLPE [7]; 30% in the assay with SETFA [8]; 20% with AMAPA [9]. The pest or weed control at 250 g/ha in the assay on ECHCG [10] was 50%; in the assay on IPOHE [11], 10%; with EPHHL [12], 20%.

Turning to `CCOC(=O)C1(C)CC(c2cc(-c3c(Cl)cc(C(F)(F)F)c[n+]3[O-])c(F)cc2Cl)=NO1` (stereo not drawn) [Compound 1-667, Ethyl 3-[2-chloro-5-(3-chloro-1-oxido-5-trifluoromethyl-2-pyridyl)-4-fluoro-phenyl]-5-methyl-4H-isoxazole-5-carboxylate], the pest or weed control at 250 g/ha in the assay on CHEAL, with LOLPE [1], in the assay on SETFA [2], in the assay on AMAPA [3], in the assay on ECHCG [4] and in the assay with ELEIN was 100% in each case. The pest or weed control at 250 g/ha with IPOHE [5], with EPHHL [6], with DIGSA, with LOLPE [7], with SETFA [8] and in the assay with AMAPA [9] was 100% throughout. Further, the pest or weed control at 250 g/ha with ECHCG [10], in the assay on IPOHE [11] and in the assay with EPHHL [12] was 100% in each case.

With `CCOC(=O)C1(C)CC(c2cc(-c3cc(C(F)(F)F)cc(Cl)n3)c(F)cc2Cl)=NO1` (stereo not drawn) [Compound 1-67, Ethyl 3-[2-chloro-5-[6-chloro-4-(trifluoromethyl)-2-pyridyl]-4-fluoro-phenyl]-5-methyl-4H-isoxazole-5-carboxylate], the pest or weed control at 250 g/ha was 10% in the assay on CHEAL; 0% in the assay with LOLPE [1]; 20% with SETFA [2]; 20% in the assay on AMAPA [3]; 0% in the assay on ECHCG [4]; 0% in the assay on ELEIN. The pest or weed control at 250 g/ha turned out to be 30% in the assay with IPOHE [5]; 40% with EPHHL [6]; 10% in the assay on DIGSA; 0% in the assay on LOLPE [7]; 0% with SETFA [8]; 10% in the assay with AMAPA [9]. Besides, the pest or weed control at 250 g/ha in the assay with ECHCG [10], in the assay with IPOHE [11] and in the assay with EPHHL [12] was 0% in each case.

In the case of `CCOC(=O)C1(C)CC(c2cc(-c3cnc(F)c(F)c3)c(F)cc2Cl)=NO1` (stereo not drawn) [Compound 1-391, Ethyl 3-[2-chloro-5-(5,6-difluoro-3-pyridyl)-4-fluoro-phenyl]-5-methyl-4H-isoxazole-5-carboxylate], the pest or weed control at 250 g/ha with CHEAL was 50%; with LOLPE [1], 10%; with SETFA [2] it was 40%; with AMAPA [3], 60%; in the assay with ECHCG [4], 40%; with ELEIN it was 40%. Moreover, the pest or weed control at 250 g/ha in the assay with IPOHE [5] was determined as 40%; in the assay on EPHHL [6], 50%; in the assay with DIGSA, 50%; in the assay on LOLPE [7], 0%; in the assay with SETFA [8], 0%; in the assay with AMAPA [9] it was 0%. The pest or weed control at 250 g/ha in the assay with ECHCG [10], in the assay with IPOHE [11] and with EPHHL [12] was 0% in each case.

`CCOC(=O)C1(C)CC(c2cc(-c3cnc(C)cn3)c(F)cc2Cl)=NO1` (stereo not drawn) [Compound 1-739, Ethyl 3-[2-chloro-4-fluoro-5-(5-methylpyrazin-2-yl)phenyl]-5-methyl-4H-isoxazole-5-carboxylate]: the pest or weed control at 250 g/ha in the assay with CHEAL is 50%; with LOLPE [1], 0%; in the assay on SETFA [2], 30%; in the assay on AMAPA [3], 50%; in the assay with ECHCG [4], 30%; in the assay on ELEIN, 50%. For the same compound, the pest or weed control at 250 g/ha in the assay on IPOHE [5] was 50%; in the assay on EPHHL [6] it was 40%; in the assay with DIGSA, 30%; in the assay on LOLPE [7], 0%; in the assay on SETFA [8], 0%; with AMAPA [9], 0%. In addition, the pest or weed control at 250 g/ha in the assay on ECHCG [10], in the assay on IPOHE [11] and in the assay on EPHHL [12] was 0% each time.

In the case of `CCOC(=O)C1(C)CC(c2cc(-c3ccnc(F)c3)c(F)cc2Cl)=NO1` (stereo not drawn) [Compound 1-295, Ethyl 3-[2-chloro-4-fluoro-5-(2-fluoro-4-pyridyl)phenyl]-5-methyl-4H-isoxazole-5-carboxylate], the pest or weed control at 250 g/ha with CHEAL turned out to be 70%; in the assay with LOLPE [1], 0%; with SETFA [2] it was 10%; in the assay on AMAPA [3], 90%; in the assay with ECHCG [4], 10%; in the assay on ELEIN, 10%. Further, the pest or weed control at 250 g/ha was found to be 50% with IPOHE [5]; 50% with EPHHL [6]; 10% in the assay with DIGSA; 0% with LOLPE [7]; 0% with SETFA [8]; 0% in the assay with AMAPA [9]. Further, the pest or weed control at 250 g/ha in the assay with ECHCG [10], in the assay with IPOHE [11] and in the assay on EPHHL [12] was 0% throughout.

The values above are taken from patent US20240124432A1, “HERBICIDAL COMPOUNDS” (SYNGENTA CROP PROTECTION AG, priority 2020, published 2024).
